Experimental data taken from US7078407B2, “4-hydroxycinnamamide derivatives as antioxidants and pharmaceutical compositions containing them” (Korea Research Institute of Chemical Technology, priority 2001, dated 2006).

What was measured:
[1] = test system: lipid peroxidation in brain homogeneous substance; experiment: Antioxidation activation test: lipid peroxidation assay (TBARS/MDA) in brain homogenate with FeCl2/ascorbic acid; type: biochemical, SD rat; details: for IC50: 50% inhibitory concentration of lipid peroxidation (TBARS at 520 nm), rat brain homogenate, FeCl2/ascorbic acid; for antioxidation activity increased compared with the prior antioxidation activator BHT: relative to BHT IC50 of Table 4
Method: After decapitating a SD rat (male, 10–12 weeks old) and rapidly extracting the brain, 10 mM Tris-HCl buffer solution (pH 7.4) containing 150 mM KCl is added to 10 ml/brain and homogenated. Then, the homogenated brain mixture is centrifuged for 10 minutes at 2,200 rpm, 4° C., and the upper layer is collected through protein assay. The exact amount of protein is measured and kept at −20° C.
250 μl of brain homogeneous substance (5 mg protein/ml), 10 μl of sample substance, 20 μl of buffer solution is divided at the 96-well micro plate one by one, and cultured for 20 minutes at 37° C. under a shaking condition. Then, 10 μl of 20 μM FeCl2 and 250 μM ascorbic acid is respectively added to the mixture and cultured for 30 minutes at 37° C. After completing the reaction by adding 50 μl of 35% HClO4 to the mixture, the micro plate is centrifuged for 10 minutes at 2,000 rpm, 4° C., and only the upper layer is transferred to the 96-well micro plate in an amount of 240 μl, and then, 120 μl of TBA (thiabarbituric acid; 5 mg/ml in 50% acetic acid) is added to the mixture. After reacting the micro plate for an hour at 80° C., it is cooled at room temperature, and the optical density of the thus obtained TBARS (thiobarbituric acid reactive substances, MDA) is measured at 520 nm.
The assay response curve of TBARS obtained using tetraethoxypropane, a reaction substance of TBA is used in calculating the amount of reaction product MDA of the sample substance, and the oxidation inhibition effect of the test drug is obtained by the following equation 1. Further, the 50% inhibitory concentration (IC50) is obtained using the dose response curve.
wherein, A is the concentration (nmol) of the control protein (MDA/mg), and
B is the concentration (nmol) of the experiment protein (MDA/mg).

SMILES	IC50 [1]	melting point	antioxidation activity increased compared with the prior antioxidation activator BHT [1]
Cc1cc(C(C)(C)C)c(O)c(C(C)(C)C)c1 [BHT, tert-butyl-hydroxytoluene, reference compound]	2090 nM	–	–
CCCCOc1cc(/C=C/C(=O)NCCc2cc(C(C)(C)C)c(O)c(C(C)(C)C)c2)cc(OCCCC)c1O [Example 1, 3-(3,5-dibutoxy-4-hydroxyphenyl)-N-[2-(3,5-di-t-butyl-4-hydroxyphenyl)ethyl]acrylamide]	–	82 to 85 °C	–
CCC(CC)Oc1cc(/C=C/C(=O)NCc2cc(C(C)(C)C)c(O)c(C(C)(C)C)c2)cc(OC(CC)CC)c1O [Example 4, 3-[3,5-bis-(1-ethylpropoxy)-4-hydroxyphenyl]-N-(3,5-di-t-butyl-4-hydroxybenzyl)acrylamide]	–	75 to 80 °C	–
CCCCCCOc1cc(/C=C/C(=O)Nc2ccccc2O)cc(OCCCCCC)c1O [Example 6, 3-(3,5-bishexyloxy-4-hydroxyphenyl)-N-(2-hydroxyphenyl)acrylamide]	–	137 to 140 °C	–
CCCCCCCCCOc1cc(CN2CCN(CC(O)c3ccc(Cl)cc3)CC2)cc(OCCCCCCCCC)c1O (stereo not shown) [Example 8, 4-{4-[2-(4-chlorophenyl)-2-hydroethyl]piperazine-1-ylmethyl}-2,6-bis-nonyloxyphenol]	1530 nM	–	27%
CCCCCCOc1cc(C=CC(=O)N2CCN(CC(O)c3ccc(F)cc3)CC2)cc(OCCCCCC)c1O (stereo not shown) [Example 12, 3-(3,5-bis-hexyloxy-4-hydroxyphenyl)-1-{4-[2-(4-fluorophenyl)-2-hydroxyethyl]piperazine-1-yl}propenone]	260 nM	–	88%
CCCCOc1cc(CCC(=O)N2CCN(CC(O)c3ccc(Cl)cc3)CC2)cc(OCCCC)c1O (stereo not shown) [Example 15, 1-{4-[2-(4-chlorophenyl)-2-hydroxyethyl]piperazine-1-yl}-3-(3,5-dibutoxy-4-hydroxyphenyl)propane-1-one]	910 nM	–	56%
CC(C)(C)c1cc(/C=C/C(=O)N2CCN(c3ccc(NC(=N)c4cccs4)cc3)CC2)cc(C(C)(C)C)c1O [Example 16, N-(4-(4-[3-(3,5-di-t-butyl-4-hydroxy-phenyl)-acryloyl]-piperizine-lyl}-phenyl)-thiophene-2-carboxamidine]	510 nM	–	–
CCC(CC)Oc1cc(/C=C/C(=O)N2CCN(c3ccc(NC(=N)c4cccs4)cc3)CC2)cc(OC(CC)CC)c1O [Example 17]	470 nM	170 to 171 °C	–
CCCOc1cc(/C=C/C(=O)N2CCN(c3ccc(NC(=N)c4cccs4)cc3)CC2)cc(OCCC)c1O [Example 18, N-(4-{4-[3-(4-hydroxy-3,5-dipropoxy-phenyl)-acryloyl]-piperazine-1-yl}-phenyl)-thiophene-2-carboxamidine]	490 nM	–	–
CCCCOc1cc(/C=C/C(=O)N2CCN(c3ccc(NC(=N)c4cccs4)cc3)CC2)cc(OCCCC)c1O [Example 19, N-(4-{4-[3-(3,5-dibutoxy-4-hydroxy-phenyl)-acryloyl]-piperazine-1-yl}-phenyl)-thiophene-2-carboxamidine]	–	99 to 102 °C	82%
CC(C)(C)c1cc(/C=C/C(=O)N2CCN(c3ccc(NC(=N)c4ccc[nH]4)cc3)CC2)cc(C(C)(C)C)c1O [Example 21, N-(4-{4-[3-(3,5-di-t-butyl-4-hydroxy-phenyl)-acryloyl]-piperazine-1-yl}-phenyl)-1H-pyrrole-2-carboxamidine]	–	149 to 167 °C	–
CCCCOc1cc(/C=C/C(=O)N2CCN(c3ccc(NC(=N)c4ccc[nH]4)cc3)CC2)cc(OCCCC)c1O [Example 22, N-(4-{4-[3-(3,5-dibutoxy-4-hydroxy-phenyl)-acryloyl]-piperazine-1-yl}-phenyl)-1H-pyrrole-2-carboxamidine]	370 nM	–	82%
CCCCCOc1cc(/C=C/C(=O)N2CCN(c3ccc(NC(=N)c4ccc[nH]4)cc3)CC2)cc(OCCCCC)c1O [Example 23, N-(4-{4-[3-(4-hydroxy-3,5-bis-penyloxy-phenyl)-acryloyl]-piperazine-1-yl}-phenyl)-1H-pyrrole-2-carboxamidine]	450 nM	109 to 116 °C	–
CCCCCCCOc1cc(/C=C/C(=O)N2CCN(c3ccc(NC(=N)c4ccc[nH]4)cc3)CC2)cc(OCCCCCCC)c1O [Example 24, N-(4-{4-[3-(3,5-bis-heptyloxy-4-hydroxy-phenyl)-acryloyl]-piperazine-1-yl}-phenyl)-1H-pyrrole-2-carboxamidine]	–	100 to 145 °C	–
